Like-named read-outs stand apart in the source and are kept apart here.

A word on the AUC(0-inf): it is the area under the concentration-time curve extrapolated to infinity. Broadly, the AUC(0-t) is exposure summed from dosing to a finite time, without extrapolation to infinity. For orientation: Cmax means the peak of the concentration-time curve. In general, MRT refers to the average time that molecules of a dose stay in the body. Broadly, the half-life is the time in which the quantity being followed falls by half. A lower half-life goes with fast loss.

Data set [1] relates to CYP3A. The following applies: with ensitrelvir 750/250 mg; cited from earlier work.
In data set [2] the test system is CYP3A. Briefly: clinical. The conditions noted are these: human, in vivo, po, 2 mg, midazolam 2 mg alone, Day -2.
Data set [3] is described as follows: Safety and tolerability: treatment-emergent adverse events. The class given is in vivo, healthy Japanese adult participants. The following applies: midazolam cohort (ensitrelvir 375/125 mg + midazolam 2 mg), N = 14.
Data set [4] concerns CYP3A. The following applies: midazolam with ensitrelvir 375/125 mg / midazolam alone, Day 5/Day -2.
Data set [5] concerns CYP3A.
Data set [6] has as its system CYP3A. Briefly: clinical. The conditions noted are these: human, in vivo, po, 10 mg; for half-life: t1/2,z GLS mean.
Data set [7] relates to CYP3A. The following applies: with itraconazole, prednisolone 20 mg administered on Day 5; cited from earlier work.
[8] abbreviates: 5th day after the last ensitrelvir dose / prednisolone alone, Day 9/Day -2.
The mark [9] stands for this setting: 10th day after the last ensitrelvir dose / prednisolone alone, Day 14/Day -2.
[10] abbreviates: prednisolone with ensitrelvir 750/250 mg / prednisolone alone, Day 5/Day -2.

Consider `Cc1ncc2n1-c1ccc(Cl)cc1C(c1ccccc1F)=NC2` [Midazolam], for which, in the data set with CYP3A [1], the “increase in the plasma exposure of midazolam” value is reported as 8.80 fold and the “increased ratio of Cmax of midazolam” value is listed as 2.78 fold. Also, the AUC(0-inf) with CYP3A [2] (AUC0–inf GLS mean) was 24.1 ng·h/mL. For the same compound, the AUC(0-t) in the data set with CYP3A [2] (AUC0–last GLS mean) was determined as 23.4 ng·h/mL. The peak concentration (Cmax) in the data set on CYP3A [2] (Cmax GLS mean) was 12.6 ng/mL. The same compound registered an MRT with CYP3A [2] (MRT GLS mean) of 3.18 h. Moreover, the half-life in the data set with CYP3A [2] (t1/2,z GLS mean) is 3.24 h. In the data set with CYP3A [2] (λz GLS mean), the k el was 5.94e-05 s⁻¹. Besides, in data set [3], the “Diarrhea, events related to midazolam” value worked out at 1 and the “Somnolence, events related to midazolam” value was 8. In the data set with CYP3A [4], the “AUC0–inf GLS mean ratio (90% CI)” value was 6.7685 (6.1572–7.4404), the “AUC0–last GLS mean ratio (90% CI)” value is 6.9011 (6.2722–7.5931), the “Cmax GLS mean ratio (90% CI)” value is 2.8012 (2.3798–3.2971) and the “MRT GLS mean ratio (90% CI)” value is 2.6506 (2.4623–2.8532). Besides, in the data set on CYP3A [4], the “t1/2,z GLS mean ratio (90% CI)” value was 2.2750 (2.0373–2.5406) and the “λz GLS mean ratio (90% CI)” value is reported as 0.4396 (0.3936–0.4909).

Regarding `C[C@]12C=CC(=O)C=C1CC[C@@H]1[C@@H]2[C@@H](O)C[C@@]2(C)[C@H]1CC[C@]2(O)C(=O)CO` [Prednisolone], in the data set on CYP3A [5] (setting [8]), the “AUC0–inf GLS mean ratio (90% CI)” value is recorded as 1.1243 (1.0973–1.1521), the “AUC0–last GLS mean ratio (90% CI)” value is on record as 1.1142 (1.0842–1.1451), the “Cmax GLS mean ratio (90% CI)” value was 1.0953 (0.9865–1.2160) and the “MRT GLS mean ratio (90% CI)” value is on record as 1.0569 (1.0095–1.1065). In addition, in the data set on CYP3A [5] (setting [8]), the “t1/2,z GLS mean ratio (90% CI)” value is given as 1.0660 (1.0349–1.0980) and the “λz GLS mean ratio (90% CI)” value is 0.9381 (0.9107–0.9663). Besides, in the data set with CYP3A [5] (setting [9]), the “AUC0–inf GLS mean ratio (90% CI)” value is 1.0396 (1.0146–1.0653), the “AUC0–last GLS mean ratio (90% CI)” value is listed as 1.0267 (0.9990–1.0552), the “Cmax GLS mean ratio (90% CI)” value is 0.9927 (0.8941–1.1021) and the “MRT GLS mean ratio (90% CI)” value is 1.0419 (0.9952–1.0908). Moreover, in the data set with CYP3A [5] (setting [9]), the “t1/2,z GLS mean ratio (90% CI)” value was 1.0474 (1.0169–1.0789) and the “λz GLS mean ratio (90% CI)” value is 0.9547 (0.9269–0.9834). Also, in the data set on CYP3A [5] (setting [10]), the “AUC0–inf GLS mean ratio (90% CI)” value was 1.2476 (1.2176–1.2784), the “AUC0–last GLS mean ratio (90% CI)” value is listed as 1.2408 (1.2073–1.2752), the “Cmax GLS mean ratio (90% CI)” value is given as 1.1141 (1.0035–1.2369) and the “MRT GLS mean ratio (90% CI)” value is reported as 1.1065 (1.0569–1.1584). For the same compound, in the data set on CYP3A [5] (setting [10]), the “t1/2,z GLS mean ratio (90% CI)” value is 1.1160 (1.0835–1.1496) and the “λz GLS mean ratio (90% CI)” value was 0.8960 (0.8699–0.9230). This compound displayed an AUC(0-inf) in the data set on CYP3A [6] (AUC0–inf GLS mean, prednisolone 10 mg alone, Day -2) of 1090 ng·h/mL. For the same compound, the AUC(0-t) with CYP3A [6] (AUC0–last GLS mean, prednisolone 10 mg alone, Day -2) turned out to be 1040 ng·h/mL. In the data set with CYP3A [6] (Cmax GLS mean, prednisolone 10 mg alone, Day -2), this compound had a Cmax of 243 ng/mL. The compound further showed an MRT in the data set on CYP3A [6] (MRT GLS mean, prednisolone 10 mg alone, Day -2) of 4.26 h. Further, the half-life in the data set with CYP3A [6] (prednisolone 10 mg alone, Day -2) was 2.55 h. In the data set on CYP3A [6] (prednisolone 10 mg, 5th day after the last ensitrelvir dose, Day 9), this compound gave a half-life of 2.71 h. In the data set with CYP3A [6] (prednisolone 10 mg, 10th day after the last ensitrelvir dose, Day 14), this compound gave a half-life of 2.67 h. The k el in the data set with CYP3A [6] (λz GLS mean, prednisolone 10 mg alone, Day -2) was 7.56e-05 s⁻¹. In addition, the “AUC of prednisolone increase” value in the data set with CYP3A [7] was 1.24 fold.

These data come from paper PMC10177727 (Clinical Drug Investigation, 2023).
